# Columns and labels:
# [1] = Example 1 single-dose plasma pharmacokinetics after intranasal administration; type: in vivo, human; details: healthy subjects; single intranasal 160 mg cocaine HCl; plasma, >12 h after dosing
# Procedure: Single-dose plasma and urinary pharmacokinetics of the pharmaceutical composition following intranasal administration was characterized in this study. This was a single-dose study in 30 healthy volunteers. The objective of the study was to examine the systemic pharmacokinetics of the pharmaceutical composition following acute, topical intranasal administration.
# (§1) A single dose of a pharmaceutical composition was administered to both nostrils using cottonoid pledgets. […] Each pledget absorbed approximately 1 mL of pharmaceutical composition (i.e., 40 mg cocaine hydrochloride). Two soaked pledgets were placed into each nasal cavity of the subject and against the anterior septum for 20 minutes; thus, a total dose of 160 mg of cocaine hydrochloride was administered.
# Blood samples were collected pre-dose (30 minutes before pledget insertion), and 7.5, 15, 20, 30, 45, 60, 75, 90, and 105 minutes and 2, 3, 4, 6, 8, 10, and 12 hours from the start of application of the pharmaceutical composition.
# The effect of gender on Cmax, Tmax, AUClast, AUCinf, and t1/2 was determined. The effects of age, body weight, and BMI on AUClast were determined.
# [2] = Example 1 urinary pharmacokinetics after intranasal administration; type: in vivo, human; details: healthy subjects; single intranasal 160 mg cocaine HCl; urine 0-12 h; metabolites as cocaine equivalents
# Procedure: as §1
# Urine samples were collected pre-dose and at the following intervals from the start of intranasal application of the pharmaceutical composition: 0-2 hours, 2-4 hours, 4-8 hours, and 8-12 hours. […] A 25-μL aliquot of each urine sample was processed by liquid-liquid extraction.
# Urinary pharmacokinetic parameters were analyzed using noncompartmental methods.
# [3] = Example 3 plasma pharmacokinetics, normal hepatic function vs hepatic impairment; details: for AUC0→t (Geometric mean) / AUC0→t (Max) / AUC0→t (Mean) / AUC0→t (Median) / AUC0→t (Min) / AUC0→∞ (Geometric mean) / AUC0→∞ (Max) / AUC0→∞ (Mean) / AUC0→∞ (Median) / AUC0→∞ (Min) / Clast (Geometric mean) / Clast (Max) / Clast (Mean) / Clast (Median) / Clast (Min) / Cmax (Geometric mean) / Cmax (Max) / Cmax (Mean) / Cmax (Median) / Cmax (Min) / Tlast (Geometric mean) / Tlast (Max) / Tlast (Mean) / Tlast (Median) / Tlast (Min) / Tmax (Geometric mean) / Tmax (Max) / Tmax (Mean) / Tmax (Median) / Tmax (Min) / t1/2 (Geometric mean) / t1/2 (Max) / t1/2 (Mean) / t1/2 (Median) / t1/2 (Min): plasma
# [4] = hepatic impairment, single intranasal 160 mg cocaine HCl
# [5] = normal hepatic function, single intranasal 160 mg cocaine HCl
# [6] = subjects with hepatic impairment, single intranasal dose
compound,measurement,setting,value
"CN1[C@H]2CC[C@@H]1[C@@H](C(=O)O)[C@@H](OC(=O)c1ccccc1)C2 [BE, benzoylecgonine]",plasma level not exceeded (metabolite not detectable in plasma),[1],≤ 100 ng/mL
same,Total Urinary Recovery (Geometric mean),[2],713 µg
same,Total Urinary Recovery (Mean),[2],816 µg
same,Total Urinary Recovery (Median),[2],769 µg
same,Urinary Recovery (Geometric mean),[2],0.467 % dose
same,Urinary Recovery (Mean),[2],0.534 % dose
same,Urinary Recovery (Median),[2],0.504 % dose
same,"AUClast, times higher than normal subjects",[3]; Grade B hepatic impairment,approximately 2.4 times
same,"AUClast, percent increased vs normal",[3]; Grade C hepatic impairment,12%
same,AUC0→t (Geometric mean),[3]; [4],1235 ng·h/mL
same,AUC0→t (Max),[3]; [4],3356 ng·h/mL
same,AUC0→t (Mean),[3]; [4],1402 ng·h/mL
same,AUC0→t (Median),[3]; [4],1190 ng·h/mL
same,AUC0→t (Min),[3]; [4],606 ng·h/mL
same,AUC0→∞ (Geometric mean),[3]; [4],1513 ng·h/mL
same,AUC0→∞ (Max),[3]; [4],3532 ng·h/mL
same,AUC0→∞ (Mean),[3]; [4],1724 ng·h/mL
same,AUC0→∞ (Median),[3]; [4],1448 ng·h/mL
same,AUC0→∞ (Min),[3]; [4],647 ng·h/mL
same,Clast (Geometric mean),[3]; [4],14.3 ng/mL
same,Clast (Max),[3]; [4],42.6 ng/mL
same,Clast (Mean),[3]; [4],17.6 ng/mL
same,Clast (Median),[3]; [4],16.6 ng/mL
same,Clast (Min),[3]; [4],3.33 ng/mL
same,Cmax (Geometric mean),[3]; [4],67.1 ng/mL
same,Cmax (Max),[3]; [4],248 ng/mL
same,Cmax (Mean),[3]; [4],81.2 ng/mL
same,Cmax (Median),[3]; [4],67.8 ng/mL
same,Cmax (Min),[3]; [4],27.4 ng/mL
same,Tlast (Geometric mean),[3]; [4],32.0 h
same,Tlast (Max),[3]; [4],32.0 h
same,Tlast (Mean),[3]; [4],32.0 h
same,Tlast (Median),[3]; [4],32.0 h
same,Tlast (Min),[3]; [4],1920 min
same,Tmax (Geometric mean),[3]; [4],6.95 h
same,Tmax (Max),[3]; [4],12.0 h
same,Tmax (Mean),[3]; [4],7.50 h
same,Tmax (Median),[3]; [4],7.00 h
same,Tmax (Min),[3]; [4],240 min
same,t1/2 (Geometric mean),[3]; [4],12.3 h
same,t1/2 (Max),[3]; [4],31.0 h
same,t1/2 (Mean),[3]; [4],14.0 h
same,t1/2 (Median),[3]; [4],12.1 h
same,t1/2 (Min),[3]; [4],399 min
same,AUC0→t (Geometric mean),[3]; [5],603 ng·h/mL
same,AUC0→t (Max),[3]; [5],2969 ng·h/mL
same,AUC0→t (Mean),[3]; [5],784 ng·h/mL
same,AUC0→t (Median),[3]; [5],523 ng·h/mL
same,AUC0→t (Min),[3]; [5],144 ng·h/mL
same,AUC0→∞ (Geometric mean),[3]; [5],667 ng·h/mL
same,AUC0→∞ (Max),[3]; [5],3446 ng·h/mL
same,AUC0→∞ (Mean),[3]; [5],869 ng·h/mL
same,AUC0→∞ (Median),[3]; [5],568 ng·h/mL
same,AUC0→∞ (Min),[3]; [5],182 ng·h/mL
same,Clast (Geometric mean),[3]; [5],4.33 ng/mL
same,Clast (Max),[3]; [5],31.6 ng/mL
same,Clast (Mean),[3]; [5],6.17 ng/mL
same,Clast (Median),[3]; [5],3.71 ng/mL
same,Clast (Min),[3]; [5],2.02 ng/mL
same,Cmax (Geometric mean),[3]; [5],43.7 ng/mL
same,Cmax (Max),[3]; [5],171 ng/mL
same,Cmax (Mean),[3]; [5],57.5 ng/mL
same,Cmax (Median),[3]; [5],35.5 ng/mL
same,Cmax (Min),[3]; [5],7.03 ng/mL
same,Tlast (Geometric mean),[3]; [5],32.0 h
same,Tlast (Max),[3]; [5],32.0 h
same,Tlast (Mean),[3]; [5],32.0 h
same,Tlast (Median),[3]; [5],32.0 h
same,Tlast (Min),[3]; [5],1920 min
same,Tmax (Geometric mean),[3]; [5],1.96 h
same,Tmax (Max),[3]; [5],8.00 h
same,Tmax (Mean),[3]; [5],2.38 h
same,Tmax (Median),[3]; [5],1.63 h
same,Tmax (Min),[3]; [5],60 min
same,t1/2 (Geometric mean),[3]; [5],9.00 h
same,t1/2 (Max),[3]; [5],13.1 h
same,t1/2 (Mean),[3]; [5],9.16 h
same,t1/2 (Median),[3]; [5],8.91 h
same,t1/2 (Min),[3]; [5],398 min
"COC(=O)[C@@H]1[C@H]2CC[C@@H](C[C@@H]1O)N2C [EME, ecgonine methyl ester]",plasma level not exceeded (metabolite not detectable in plasma),[1],≤ 50 ng/mL
same,Total Urinary Recovery (Geometric mean),[2],252 µg
same,Total Urinary Recovery (Mean),[2],275 µg
same,Total Urinary Recovery (Median),[2],276 µg
same,Urinary Recovery (Geometric mean),[2],0.240 % dose
same,Urinary Recovery (Mean),[2],0.262 % dose
same,Urinary Recovery (Median),[2],0.263 % dose
same,"AUClast, times higher than normal subjects",[3]; Grade B hepatic impairment,approximately 2.4 times
same,"AUClast, times higher than normal subjects",[3]; Grade C hepatic impairment,2.2 times
same,AUC0→t (Geometric mean),[3]; [5],61.2 ng·h/mL
same,AUC0→t (Max),[3]; [5],198 ng·h/mL
same,AUC0→t (Mean),[3]; [5],72.9 ng·h/mL
same,AUC0→t (Median),[3]; [5],59.1 ng·h/mL
same,AUC0→t (Min),[3]; [5],24.5 ng·h/mL
same,AUC0→∞ (Geometric mean),[3]; [5],76.1 ng·h/mL
same,AUC0→∞ (Max),[3]; [5],212 ng·h/mL
same,AUC0→∞ (Mean),[3]; [5],89.6 ng·h/mL
same,AUC0→∞ (Median),[3]; [5],72.9 ng·h/mL
same,AUC0→∞ (Min),[3]; [5],31.5 ng·h/mL
same,Clast (Geometric mean),[3]; [5],1.67 ng/mL
same,Clast (Max),[3]; [5],3.72 ng/mL
same,Clast (Mean),[3]; [5],1.85 ng/mL
same,Clast (Median),[3]; [5],1.60 ng/mL
same,Clast (Min),[3]; [5],1.00 ng/mL
same,Cmax (Geometric mean),[3]; [5],8.75 ng/mL
same,Cmax (Max),[3]; [5],26.8 ng/mL
same,Cmax (Mean),[3]; [5],10.0 ng/mL
same,Cmax (Median),[3]; [5],7.81 ng/mL
same,Cmax (Min),[3]; [5],3.83 ng/mL
same,Tlast (Geometric mean),[3]; [5],15.4 h
same,Tlast (Max),[3]; [5],28.0 h
same,Tlast (Mean),[3]; [5],16.5 h
same,Tlast (Median),[3]; [5],12.0 h
same,Tlast (Min),[3]; [5],600 min
same,Tmax (Geometric mean),[3]; [5],1.33 h
same,Tmax (Max),[3]; [5],3.00 h
same,Tmax (Mean),[3]; [5],1.45 h
same,Tmax (Median),[3]; [5],1.25 h
same,Tmax (Min),[3]; [5],30 min
same,t1/2 (Geometric mean),[3]; [5],5.99 h
same,t1/2 (Max),[3]; [5],9.97 h
same,t1/2 (Mean),[3]; [5],6.27 h
same,t1/2 (Median),[3]; [5],5.69 h
same,t1/2 (Min),[3]; [5],250 min
same,AUC0→t (Geometric mean),[3]; [6],146 ng·h/mL
same,AUC0→t (Mean),[3]; [6],185 ng·h/mL
same,AUC0→t (Median),[3]; [6],140 ng·h/mL
same,AUC0→∞ (Geometric mean),[3]; [6],212 ng·h/mL
same,AUC0→∞ (Mean),[3]; [6],233 ng·h/mL
same,AUC0→∞ (Median),[3]; [6],185 ng·h/mL
same,Clast (Geometric mean),[3]; [6],1.57 ng/mL
same,Clast (Mean),[3]; [6],1.65 ng/mL
same,Clast (Median),[3]; [6],1.67 ng/mL
same,Cmax (Geometric mean),[3]; [6],11.3 ng/mL
same,Cmax (Mean),[3]; [6],16.1 ng/mL
same,Cmax (Median),[3]; [6],9.11 ng/mL
same,Tlast (Geometric mean),[3]; [6],26.3 h
same,Tlast (Mean),[3]; [6],27.7 h
same,Tlast (Median),[3]; [6],32.0 h
same,Tmax (Geometric mean),[3]; [6],2.90 h
same,Tmax (Mean),[3]; [6],3.84 h
same,Tmax (Median),[3]; [6],4.00 h
same,t1/2 (Geometric mean),[3]; [6],8.67 h
same,t1/2 (Mean),[3]; [6],9.26 h
same,t1/2 (Median),[3]; [6],8.3 h

# Reference: patent publication US10413505B1, “Pharmaceutical compositions and methods of using the same” (priority 2017, dated 2019)
